Reference: the NIST ThermoML archive (doi:10.1021/je900757k)

Experiment: isobaric coefficient of expansion
Conditions: Liquid, DSC

CCCCCCCCCCCCCC [tetradecane]
isobaric coefficient of expansion
Conditions	298.15 K	308.15 K	318.15 K	328.15 K	338.15 K	348.15 K
5000 kPa	0.000909 1/K	0.000913 1/K	0.000918 1/K	0.000922 1/K	0.000931 1/K	0.000941 1/K
10000 kPa	0.000881 1/K	0.000884 1/K	0.00089 1/K	0.00089 1/K	0.000897 1/K	0.0009 1/K
15000 kPa	0.00086 1/K	0.000861 1/K	0.000863 1/K	0.000859 1/K	0.000863 1/K	0.000867 1/K
20000 kPa	0.000837 1/K	0.000836 1/K	0.000837 1/K	0.000833 1/K	0.000835 1/K	0.000839 1/K
25000 kPa	0.000815 1/K	0.000814 1/K	0.000815 1/K	0.00081 1/K	0.00081 1/K	0.000812 1/K
30000 kPa	0.000798 1/K	0.000793 1/K	0.000791 1/K	0.000789 1/K	0.000789 1/K	0.000789 1/K
35000 kPa	0.00078 1/K	0.000777 1/K	0.000774 1/K	0.00077 1/K	0.000768 1/K	0.000768 1/K
40000 kPa	0.000764 1/K	0.000761 1/K	0.000756 1/K	0.000753 1/K	0.000749 1/K	0.000747 1/K
45000 kPa	0.00075 1/K	0.000742 1/K	0.000738 1/K	0.000735 1/K	0.000732 1/K	0.000726 1/K
50000 kPa	0.000737 1/K	0.00073 1/K	0.000722 1/K	0.00072 1/K	0.000718 1/K	0.000711 1/K
55000 kPa	0.000725 1/K	0.000719 1/K	0.000714 1/K	0.000709 1/K	0.000705 1/K	0.000699 1/K
